Laboratory results taken from publication PMC5974752, “Bax/Tubulin/Epithelial-Mesenchymal Pathways Determine the Efficacy of Silybin Analog HM015k in Colorectal Cancer Cell Growth and Metastasis” (Frontiers in Pharmacology, 2018).
Where two headings read alike, the source gives them in different places.

Experiments:
[1] = tested on: COLO 205 cell line; experiment: Transwell migration assay; assay type: cell-based; details: 2 and 4 μM, data not shown
Method: The effect of compound 15k on the invasiveness of LOVO was tested using 24 trans-well inserts with an […]. The addition of the insert to the well forms two chambers (upper and lower), where the upper chamber was used to grow the cells on the porous membrane. The lower chamber was filled with 600 μl of cell-free DMEM medium. A 200 μl of cell suspension was added to each insert and allowed to attach for 1 h. The test compound was added in different concentrations and incubated with the cells for 24 h. […] Finally, the remaining migrated cells were fixed by methanol and dyed with 0.1% crystal violet dye and observed with an EVOS microscope. The number of migrated cells was counted and compared between the treated and control cells.
The development of cancer metastasis is dependent on the migration and invasive properties of cancerous cells (van Zijl et al., [2011]). The wound healing and transwell migration assays were used with LOVO cells, as a model for metastatic CRC as it is characterized by a high level of invasiveness (Fan et al., [2015]). The wound healing assay is a well-established method to detect and analyze cell migration potential (Liang et al., [2007]). […] The effect of compound 15k on the invasiveness of COLO 205 cell line was also measured using trans-well migration assay. […] 15j also reversed cell migration and metastasis at different concentrations.

[2] = tested on: CRC cell lines (HCT116, LOVO, and S1); experiment: MTT assay, CRC cell lines together; assay type: cell-based, human; details: MTT
Method: (§1) The 3-(4,5-dimethylthiazol-2-yl)-2,5-diphenyltetrazolium bromide (MTT) assay was used to determine the sensitivity of the different CRC cells to the novel silybin derivatives (Hussein et al., [2017]; Manivannan et al., [2017]). The cells were seeded at a density of 4,000–5,000 cells/well in 96 well plates and incubated with serial dilutions of the compounds (0, 0.1, 0.3, 1, 3, 10, 30, and 100 μM). The MTT dye (4 mg/ml) was added after 72 h of incubation and incubated with the cells for an additional 4 h at 37°C. Following incubation, the media was discarded and the formazan crystals were dissolved by adding 100 μL of DMSO to each well. A DTX 880 multimode detector (Beckman Coulter Life, Indianapolis IN, USA) was used to determine the absorbance readings at a wavelength of 570 nm. The IC50 values were determined based on 3 separate experiments, with each experiment done in triplicate. The selectivity of the compounds was determined by comparing their cytotoxicity for CRC to normal epithelial cell lines (CHO, and CRL1459).

[3] = tested on: HCT116; experiment: MTT assay; assay type: cell-based, human; details: Homo sapiens, HCT-116, MTT
Method: as §1

[4] = tested on: HCT116 cells; experiment: Detection of reactive oxygen species (H2DCF-DA); assay type: cell-based, human; details: 1, 2 and 4 μM, 24 and 48 h, vs vehicle
Method: H2DCF-DA was used as previously described (Amawi et al., [2017c]). The cells that had been incubated with the test compound were further incubated with 3 μM of the H2DCF-DA working solution for 30 min at 37°C. The fluorescence level of oxidized DCF (excitation at 485 nm and emission at 535 nm) was detected under EVOS digital fluorescent microscope at 40x.

[5] = tested on: CRL-1459; experiment: MTT assay, normal cell line; assay type: cell-based; details: 72 h incubation, mean ± SD of three experiments
Method: as §1

[6] = tested on: HCT116 cell; experiment: Cell morphology (EMT reversal); assay type: cell-based, human; details: HCT116 after incubation with 15k
Method: The aberrant, over-activation of embryonic signaling pathways, including Wnt/β-catenin/epithelial-mesenchymal transition (EMT), is involved in the development, progression, metastasis, and resistance of CRC (Du and Shim, [2016]). […] To test this hypothesis, the morphology of HCT116 cell was observed following incubation with 15k. […] We then determined the efficacy of compound 15k on the expression of (1) β-catenin; (2) E-cadherin, and (3) N-cadherin in CRC cells.

[7] = tested on: HCT116 Bak knockout (Bak–/–) cells; experiment: MTT assay, knockout cells; assay type: cell-based; details: Homo sapiens, HCT-116, not significantly different from WT
Method: (§2) Colorectal cancer cell lines, including HCT116, LOVO, and S1, with varying drug sensitivity and invasiveness, were grown as adherent monolayer in culturing flasks. Normal epithelial cells lines (Chinese hamster ovarian: CHO, normal epithelial colon: CRL1459) were also grown. Both cancerous and normal cell lines were kindly obtained from the late Dr. Gary Kruh (University of Chicago, Illinois). In addition, CRC HCT116 Bax knockout (Bax–/–) cells were kindly provided by Dr. Bert Vogelstein (Johns Hopkins, Baltimore) (Zhang et al., [2000]), Bak knockout (Bak–/–) and Bax-Bak double knockout (Bax–/– and Bak–/–) cells were kindly provided by Richard Youle (NIH, […], MD) (Wang and Youle, [2012]). DMEM, with 4.5 g of glucose, was supplemented with 10% fetal bovine serum (FBS) and 1% penicillin/streptomycin and used for all cell lines. The cells were cultured in a humidified incubator containing 5% CO2 at 37°C. All of cells were checked and confirmed to be free of fungi and mycoplasma. Cells were obtained from frozen stocks and cell passaging (up to P4) was performed at 80% cell confluency by PBS and trypsin + 2.2 mM EDTA.
as §1, with “Following incubation, the media was discarded and the formazan crystals were dissolved by adding 100 μL of DMSO to each well.” left out

[8] = tested on: HCT116 Bax-Bak double knockout (DKO) cells; experiment: MTT assay, knockout cells; assay type: cell-based; details: Homo sapiens, HCT-116, p < 0.05 vs WT
Method: as §2
as §1, with “Following incubation, the media was discarded and the formazan crystals were dissolved by adding 100 μL of DMSO to each well.” left out

[9] = tested on: HCT116 Bax knockout (Bax–/–) cells; experiment: MTT assay, knockout cells; assay type: cell-based; details: Homo sapiens, HCT-116, p < 0.05 vs WT
Method: as §2
as §1, with “Following incubation, the media was discarded and the formazan crystals were dissolved by adding 100 μL of DMSO to each well.” left out

[10] = tested on: HCT116 cells; experiment: MitoTracker Red / Alexa Fluor 488 annexin V flow cytometry; assay type: cell-based, human; details: overnight
Method: The mitochondrial membrane potential and the induction of apoptosis were analyzed in HCT116 cells using the MitoTracker Red and Alexa Fluor 488 annexin V kits for flow cytometry as previously described (Karthikeyan et al., [2015]). Six well plates were used for seeding of cells, followed by incubation with 15j or 15k (0, 1, 2, and 4μM) for overnight. Subsequently, the cells were harvested, counted and 4 μl of a 10μM working solution of MitoTracker Red was added to each 1 ml cell suspension, followed by 30 min of incubation at 37°C with 5% CO2. The cells were resuspended in 100 μl of annexin binding buffer and 5 μl of Alexa Fluor 488 annexin V was added to the suspension and incubated for 15 min. Finally, 400 μl of annexin-binding buffer was added and the stained cells were detected by flow cytometry. The fluorescence emission at 530 and 585 nm was measured using a BD Accuri™ C6 flow cytometer and analyzed using FCS express 5 plus De Novo software.

In the case of `O=C(/C=C/c1cccc(OCc2ccccc2)c1)c1ccc(O)cc1` [Compound 15k], the trans-well migration [1] is reported as “significantly inhibited the migration”, the IC50 ([2]; Homo sapiens, range over HCT116, S1 and LOVO, read-out: IC50 in the CRC cells) is reported as 1000 to 2000 nM and the “selectivity, CRC cells compared to normal cells” value ([2]; vs CRL1459 and CHO) is reported as “selectively cytotoxic”. The IC50 ([3]; 72 h incubation, mean ± SD of three experiments, read-out: IC50 ± SD, Colon HCT116) was 900 nM, the IC50 ([3]; comparison with knockout cells, read-out: IC50, HCT116 wild type) was 890 nM and the “ROS formation (oxidized DCF fluorescence)” value [4] was “significantly increased ROS formation”. For the same compound, the IC50 [5] was 8.5 ± 0.7 µM, the cell morphology [6] was “significantly changed the morphology of the cells from mesenchymal to a more epithelial-like appearance” and the IC50 [7] was 3.6 µM. For the same compound, the IC50 [8] was 13.6 µM, the IC50 [9] was 10.9 µM and the “cells undergoing apoptosis, quadrant II (Q2)” value ([10]; 2 μM, vehicle 2.83%) was 47%. For the same compound, the viability at 2 µM ([10]; Homo sapiens, HCT-116, 2 μM, vehicle 90.66%, read-out: viable cells in quadrant I (Q1)) was 35.8% and the viability at 4 µM ([10]; Homo sapiens, HCT-116, 4 μM, vehicle 90.66%, read-out: viable cells in quadrant I (Q1)) was 36%.
